Columns and labels:
Conditions in all cases: incubation time: 72 h
MFM-223 [1] = test: normalised response (% of control), CellTiter-Glo; higher = more viable cells (100 = DMSO, 0 = benzethonium chloride kill control)
Method: (§1)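 DSRT, 72 h incubation, CellTox Green / CellTiter-Glo readout. Signal is normalised to DMSO and benzethonium chloride controls. Value is the normalised response at dose 3.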

HCC1143 [2] = test: as above
Method: as §1

BT-474 [3] = test: as above
Method: as §1

MDA-MB-468 [4] = test: as above
Method: as §1

HDQ-P1 [5] = test: as above
Method: as §1

MDA-MB-436 [6] = test: as above
Method: as §1

MCF-10A [7] = test: as above
Method: as §1

HCC1599 [8] = test: as above
Method: as §1

MDA-MB-231 [9] = test: as above
Method: as §1

CAL-85-1 [10] = test: as above
Method: as §1

DU-4475 [11] = test: as above
Method: as §1

CAL-51 [12] = test: as above
Method: as §1

HCC1937 [13] = test: as above
Method: as §1

CAL-120 [14] = test: as above
Method: as §1

BT-549 [15] = test: as above
Method: as §1

Hs578T [16] = test: as above
Method: as §1

CAL-148 [17] = test: as above
Method: as §1

MDA-MB-453 [18] = test: as above
Method: as §1

SK-BR-3 [19] = test: as above
Method: as §1

MFM-223 [20] = test: normalised response (% of control), CellTox Green; higher = less cell death (100 = DMSO, 0 = benzethonium chloride kill control)
Procedure, shortened: (§2)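 Compound was dispensed into 384-well plates at 5 concentrations in 10-fold steps spanning a 10,000-fold range specific to that compound. Breast cancer cell lines were added as 20 µl suspension and left for 72 h before CellTox Green fluorescence (485/520 nm) and then CellTiter-Glo luminescence, read after 10 min at room temperature. Each reported value is the normalised signal at one concentration, with 0.1 % DMSO set at 100 and a positive kill control at 0 on each plate.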

HCC1143 [21] = test: as above
Procedure, shortened: as §2

BT-474 [22] = test: as above
Procedure, shortened: as §2

MDA-MB-468 [23] = test: as above
Procedure, shortened: as §2

MDA-MB-436 [24] = test: as above
Procedure, shortened: as §2

MCF-10A [25] = test: as above
Procedure, shortened: as §2

HCC1599 [26] = test: as above
Procedure, shortened: as §2

MDA-MB-231 [27] = test: as above
Procedure, shortened: as §2

CAL-85-1 [28] = test: as above
Procedure, shortened: as §2

DU-4475 [29] = test: as above
Procedure, shortened: as §2

CAL-51 [30] = test: as above
Procedure, shortened: as §2

CAL-120 [31] = test: as above
Procedure, shortened: as §2

BT-549 [32] = test: as above
Procedure, shortened: as §2

CAL-148 [33] = test: as above
Procedure, shortened: as §2

MDA-MB-453 [34] = test: as above
Procedure, shortened: as §2

MFM-223 [35] = test: normalised response (% of control), CellTiter-Glo; higher = more viable cells (100 = DMSO, 0 = benzethonium chloride kill control); remark: listed apart in the source
Method: (§3)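 DSRT, 72 h incubation, CellTox Green / CellTiter-Glo readout. Signal is normalised to DMSO and benzethonium chloride controls. Value is the normalised response at the highest dose.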

HCC1143 [36] = test: as above; remark: listed apart in the source
Method: as §3

BT-474 [37] = test: as above; remark: listed apart in the source
Method: as §3

MDA-MB-468 [38] = test: as above; remark: listed apart in the source
Method: as §3

HDQ-P1 [39] = test: as above; remark: listed apart in the source
Method: as §3

MDA-MB-436 [40] = test: as above; remark: listed apart in the source
Method: as §3

MCF-10A [41] = test: as above; remark: listed apart in the source
Method: as §3

HCC1599 [42] = test: as above; remark: listed apart in the source
Method: as §3

MDA-MB-231 [43] = test: as above; remark: listed apart in the source
Method: as §3

CAL-85-1 [44] = test: as above; remark: listed apart in the source
Method: as §3

DU-4475 [45] = test: as above; remark: listed apart in the source
Method: as §3

CAL-51 [46] = test: as above; remark: listed apart in the source
Method: as §3

HCC1937 [47] = test: as above; remark: listed apart in the source
Method: as §3

CAL-120 [48] = test: as above; remark: listed apart in the source
Method: as §3

BT-549 [49] = test: as above; remark: listed apart in the source
Method: as §3

Hs578T [50] = test: as above; remark: listed apart in the source
Method: as §3

CAL-148 [51] = test: as above; remark: listed apart in the source
Method: as §3

MDA-MB-453 [52] = test: as above; remark: listed apart in the source
Method: as §3

SK-BR-3 [53] = test: as above; remark: listed apart in the source
Method: as §3

HDQ-P1 [54] = test: normalised response (% of control), CellTox Green; higher = less cell death (100 = DMSO, 0 = benzethonium chloride kill control)
Procedure, shortened: as §2

HCC1937 [55] = test: as above
Procedure, shortened: as §2

Hs578T [56] = test: as above
Procedure, shortened: as §2

Compound | normalised response (MFM-223 [20]) [%] | normalised response (HCC1143 [21]) [%] | normalised response (BT-474 [22]) [%] | normalised response (MDA-MB-468 [23]) [%] | normalised response (MDA-MB-436 [24]) [%] | normalised response (MCF-10A [25]) [%] | normalised response (HCC1599 [26]) [%] | normalised response (MDA-MB-231 [27]) [%] | normalised response (CAL-85-1 [28]) [%] | normalised response (DU-4475 [29]) [%] | normalised response (CAL-51 [30]) [%] | normalised response (CAL-120 [31]) [%] | normalised response (BT-549 [32]) [%] | normalised response (CAL-148 [33]) [%] | normalised response (MDA-MB-453 [34]) [%] | normalised response (MFM-223 [35]) [%] | normalised response (HCC1143 [36]) [%] | normalised response (BT-474 [37]) [%] | normalised response (MDA-MB-468 [38]) [%] | normalised response (HCC1937 [55]) [%] | further results
CC(C)N(CCCNC(=O)Nc1ccc(C(C)(C)C)cc1)C[C@H]1O[C@@H](n2cc(Br)c3c(N)ncnc32)[C@H](O)[C@@H]1O [SGC0946] (100 nM) | 97.4 | 88.1 | 98.2 | 108 | 95.2 | 99 | 96.4 | 73.8 | 103 | 98.8 | 95.6 | 95.6 | 101 | 100 | 99.1 | – | – | – | – | – | normalised response (MFM-223 [1]): 95.2%; normalised response (HCC1143 [2]): 101%; normalised response (BT-474 [3]): 96%; normalised response (MDA-MB-468 [4]): 93.8%; normalised response (HDQ-P1 [5]): 93%; normalised response (MDA-MB-436 [6]): 99.4%; normalised response (MCF-10A [7]): 96%; normalised response (HCC1599 [8]): 93.7%; normalised response (MDA-MB-231 [9]): 96%; normalised response (CAL-85-1 [10]): 102%; normalised response (DU-4475 [11]): 98%; normalised response (CAL-51 [12]): 91.1%; normalised response (HCC1937 [13]): 94.4%; normalised response (CAL-120 [14]): 101%; normalised response (BT-549 [15]): 91.3%; normalised response (Hs578T [16]): 88.5%; normalised response (CAL-148 [17]): 86.6%; normalised response (MDA-MB-453 [18]): 91%; normalised response (SK-BR-3 [19]): 90%
Cc1c(Cn2c(C)nc3c(C(=O)O)cc(N4CCOCC4)cc32)cccc1C(F)(F)F (10000 nM) | 82.5 | 115 | 100 | 174 | 96.6 | 108 | 108 | 110 | 78.3 | 102 | 90.7 | 106 | 101 | 77.8 | 94.8 | 102 | 106 | 94.5 | 69.4 | 114 | normalised response (HDQ-P1 [39]): 100%; normalised response (MDA-MB-436 [40]): 86.2%; normalised response (MCF-10A [41]): 111%; normalised response (HCC1599 [42]): 97.5%; normalised response (MDA-MB-231 [43]): 96.1%; normalised response (CAL-85-1 [44]): 97.3%; normalised response (DU-4475 [45]): 97%; normalised response (CAL-51 [46]): 64.9%; normalised response (HCC1937 [47]): 92.1%; normalised response (CAL-120 [48]): 100%; normalised response (BT-549 [49]): 85.4%; normalised response (Hs578T [50]): 97.6%; normalised response (CAL-148 [51]): 114%; normalised response (MDA-MB-453 [52]): 94.1%; normalised response (SK-BR-3 [53]): 98.3%; normalised response (HDQ-P1 [54]): 112%; normalised response (Hs578T [56]): 120%
Cn1cc(CNCC2CCN(c3ncc(C(=O)NO)cn3)CC2)c2ccccc21 [Quisinostat] (1000 nM) | 66.2 | 57.9 | 35.7 | 31.9 | 91.8 | 56.8 | 71.7 | -24.8 | -55.4 | 77.2 | -21.8 | -15.2 | 64.2 | -22.9 | 87.9 | 32.8 | 13.9 | 6.87 | 10.2 | 82 | normalised response (HDQ-P1 [39]): 25.7%; normalised response (MDA-MB-436 [40]): 34.8%; normalised response (MCF-10A [41]): 10.7%; normalised response (HCC1599 [42]): 6.82%; normalised response (MDA-MB-231 [43]): 6.24%; normalised response (CAL-85-1 [44]): 4.67%; normalised response (DU-4475 [45]): 15.9%; normalised response (CAL-51 [46]): 7.13%; normalised response (HCC1937 [47]): 22.7%; normalised response (CAL-120 [48]): 10.8%; normalised response (BT-549 [49]): 10.2%; normalised response (Hs578T [50]): 5.64%; normalised response (CAL-148 [51]): 0.34%; normalised response (MDA-MB-453 [52]): 2.11%; normalised response (SK-BR-3 [53]): 0.06%; normalised response (HDQ-P1 [54]): 52.1%; normalised response (Hs578T [56]): 9.9%
O=C1c2c(O)ccc(O)c2C(=O)c2c(NCCNCCO)ccc(NCCNCCO)c21 [Mitoxantrone] (10 nM) | 97.3 | 111 | 101 | 129 | 93.1 | 107 | 96.5 | 104 | 96.2 | 99.9 | 104 | 101 | 94.3 | – | 107 | – | – | – | – | 91.8 | normalised response (MFM-223 [1]): 94%; normalised response (HCC1143 [2]): 104%; normalised response (BT-474 [3]): 96.1%; normalised response (MDA-MB-468 [4]): 95.6%; normalised response (HDQ-P1 [5]): 106%; normalised response (MDA-MB-436 [6]): 92.7%; normalised response (MCF-10A [7]): 96.2%; normalised response (HCC1599 [8]): 97.2%; normalised response (MDA-MB-231 [9]): 99.8%; normalised response (CAL-85-1 [10]): 97.8%; normalised response (DU-4475 [11]): 95.8%; normalised response (CAL-51 [12]): 93.5%; normalised response (HCC1937 [13]): 101%; normalised response (CAL-120 [14]): 104%; normalised response (BT-549 [15]): 96.7%; normalised response (Hs578T [16]): 102%; normalised response (CAL-148 [17]): 98.6%; normalised response (MDA-MB-453 [18]): 99.3%; normalised response (SK-BR-3 [19]): 89.1%
O=C(NC[C@H](O)CO)c1ccncc1Nc1ccc(I)cc1F [Pimasertib] (10000 nM) | 64.9 | 124 | 88.3 | 169 | 100 | 95.4 | 105 | 70.1 | 51.5 | 72.9 | 93.8 | 72.1 | 125 | 99.6 | 112 | 63 | 79.1 | 53 | 53.5 | 91 | normalised response (HDQ-P1 [39]): 55.1%; normalised response (MDA-MB-436 [40]): 79.7%; normalised response (MCF-10A [41]): 26.6%; normalised response (HCC1599 [42]): 89.8%; normalised response (MDA-MB-231 [43]): 54%; normalised response (CAL-85-1 [44]): 40.8%; normalised response (DU-4475 [45]): 0.07%; normalised response (CAL-51 [46]): 90.2%; normalised response (HCC1937 [47]): 68.1%; normalised response (CAL-120 [48]): 65.4%; normalised response (BT-549 [49]): 84.2%; normalised response (Hs578T [50]): 64.6%; normalised response (CAL-148 [51]): 71.6%; normalised response (MDA-MB-453 [52]): 89.2%; normalised response (SK-BR-3 [53]): 58.6%; normalised response (HDQ-P1 [54]): 81.8%; normalised response (Hs578T [56]): 105%

Reference: the supplement of paper PMC4862054
